According to ChEMBL document CHEMBL1201862, “PubChem BioAssay data set” (2004):
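A five-concentration, 48-hour dose response in 96-well plates underlies each endpoint, interpolated linearly between surrounding concentrations. GI50 is the concentration that inhibits growth by half.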 Active and inactive are the calls of the source. Rule as the data show it: active = GI50 up to about 1.1 µM and inactive = higher. Peptide text beside a SMILES is read from it. * marks the point of attachment. Boc = CC(C)(C)OC(=O)*; OtBu = CC(C)(C)O*

Tests used:
Assay in all cases: DTP human tumour cell line panel, 48 h
CAKI-1 = tested on: CAKI-1
RXF 393 = tested on: RXF 393
MDA-MB-231 = tested on: MDA-MB-231
OVCAR-5 = tested on: OVCAR-5
HCT-15 = tested on: HCT-15
SF-268 = tested on: SF-268
HT-29 = tested on: HT-29
OVCAR-3 = tested on: OVCAR-3
TK-10 = tested on: TK-10
LOX IMVI = tested on: LOX IMVI
PC-3 = tested on: PC-3
COLO 205 = tested on: COLO 205
T47D = tested on: T47D
NCI-H460 = tested on: NCI-H460
UACC-257 = tested on: UACC-257
SK-OV-3 = tested on: SK-OV-3
DU-145 = tested on: DU-145
NCI-H522 = tested on: NCI-H522
M14 = tested on: M14
A549 = tested on: A549
K562 = tested on: K562
NCI-H226 = tested on: NCI-H226
NCI/ADR-RES = tested on: NCI/ADR-RES
MCF7 = tested on: MCF7
SNB-19 = tested on: SNB-19
SK-MEL-5 = tested on: SK-MEL-5
SK-MEL-28 = tested on: SK-MEL-28
HOP-62 = tested on: HOP-62
SF-295 = tested on: SF-295
U-251 = tested on: U-251
NCI-H23 = tested on: NCI-H23
MDA-MB-435 = tested on: MDA-MB-435
SK-MEL-2 = tested on: SK-MEL-2
MDA-N = tested on: MDA-N
786-0 = tested on: 786-0
BT-549 = tested on: BT-549
SNB-75 = tested on: SNB-75
Hs-578T = tested on: Hs-578T
SW-620 = tested on: SW-620
SF-539 = tested on: SF-539
IGROV-1 = tested on: IGROV-1
RPMI-8226 = tested on: RPMI-8226
HCT-116 = tested on: HCT-116
EKVX = tested on: EKVX
ACHN = tested on: ACHN
A498 = tested on: A498
Malme-3M = tested on: Malme-3M
CCRF-CEM = tested on: CCRF-CEM
OVCAR-8 = tested on: OVCAR-8
KM12 = tested on: KM12
UO-31 = tested on: UO-31
SN12C = tested on: SN12C
HOP-92 = tested on: HOP-92
OVCAR-4 = tested on: OVCAR-4
HL-60 = tested on: HL-60
HCC 2998 = tested on: HCC 2998
MOLT-4 = tested on: MOLT-4
UACC-62 = tested on: UACC-62

In the case of CC(C)(C)OC(=O)CC(NC(=O)OC(C)(C)C)C(=O)NC(Cc1ccccc1)C(N)=O (stereo unspecified) (Boc-Asp(OtBu)-Phe-NH2; configuration not given here), the GI50 (CAKI-1) was > 100 µM (inactive), the GI50 (RXF 393) was > 100 µM (inactive) and the GI50 (MDA-MB-231) was > 100 µM (inactive). The GI50 (OVCAR-5) was > 100 µM (inactive), the GI50 (HCT-15) was greater than 100 µM and the GI50 (SF-268) was > 100 µM (inactive). The GI50 (HT-29) was > 100 µM (inactive), the GI50 (OVCAR-3) was > 100 µM (inactive) and the GI50 (TK-10) was > 100 µM (inactive). For the same molecule, the GI50 (LOX IMVI) was > 100 µM (inactive), the GI50 (PC-3) was > 100 µM (inactive) and the GI50 (COLO 205) was > 100 µM (inactive). The GI50 (T47D) was > 100 µM (inactive), the GI50 (NCI-H460) was > 100 µM (inactive) and the GI50 (UACC-257) was > 100 µM (inactive). The GI50 (SK-OV-3) was > 100 µM (inactive), the GI50 (DU-145) was > 100 µM (inactive) and the GI50 (NCI-H522) was > 100 µM (inactive). For the same molecule, the GI50 (M14) was > 100 µM (inactive), the GI50 (A549) was > 100 µM (inactive) and the GI50 (K562) was > 100 µM (inactive). For the same molecule, the GI50 (NCI-H226) was > 100 µM (inactive), the GI50 (NCI/ADR-RES) was > 100 µM (inactive) and the GI50 (MCF7) was > 100 µM (inactive). The GI50 (SNB-19) was > 100 µM (inactive), the GI50 (SK-MEL-5) was > 100 µM (inactive) and the GI50 (SK-MEL-28) was > 100 µM (inactive). For the same molecule, the GI50 (HOP-62) was > 100 µM (inactive), the GI50 (SF-295) was > 100 µM (inactive) and the GI50 (U-251) was > 100 µM (inactive). The GI50 (NCI-H23) was > 100 µM (inactive), the GI50 (MDA-MB-435) was > 100 µM (inactive) and the GI50 (SK-MEL-2) was > 100 µM (inactive). The GI50 (MDA-N) was > 100 µM (inactive), the GI50 (786-0) was > 100 µM (inactive) and the GI50 (BT-549) was > 100 µM (inactive). The GI50 (SNB-75) was > 100 µM (inactive), the GI50 (Hs-578T) was > 100 µM (inactive) and the GI50 (SW-620) was > 100 µM (inactive). For the same molecule, the GI50 (SF-539) was > 100 µM (inactive), the GI50 (IGROV-1) was > 100 µM (inactive) and the GI50 (RPMI-8226) was > 100 µM (inactive). For the same molecule, the GI50 (HCT-116) was > 100 µM (inactive), the GI50 (EKVX) was > 100 µM (inactive) and the GI50 (ACHN) was > 100 µM (inactive). For the same molecule, the GI50 (A498) was > 100 µM (inactive), the GI50 (Malme-3M) was > 100 µM (inactive) and the GI50 (CCRF-CEM) was > 100 µM (inactive). For the same molecule, the GI50 (OVCAR-8) was > 100 µM (inactive), the GI50 (KM12) was > 100 µM (inactive) and the GI50 (UO-31) was > 100 µM (inactive). For the same molecule, the GI50 (SN12C) was > 100 µM (inactive), the GI50 (HOP-92) was 19.8 µM (inactive) and the GI50 (OVCAR-4) was > 100 µM (inactive).

In the case of CN(C)CCNc1nc2ccccc2c2c1CCCC2, the GI50 (CAKI-1) was 16.9 µM (inactive), the GI50 (RXF 393) was 8.65 µM (inactive) and the GI50 (MDA-MB-231) was 14.7 µM (inactive). For the same molecule, the GI50 (OVCAR-5) was 30.4 µM (inactive), the GI50 (HCT-15) was 32 µM and the GI50 (SF-268) was 32.1 µM (inactive). For the same molecule, the GI50 (HL-60) was 14.8 µM (inactive), the GI50 (HT-29) was 22.8 µM (inactive) and the GI50 (OVCAR-3) was 30.8 µM (inactive). For the same molecule, the GI50 (TK-10) was 14.5 µM (inactive), the GI50 (LOX IMVI) was 17.8 µM (inactive) and the GI50 (PC-3) was 26.5 µM (inactive). For the same molecule, the GI50 (COLO 205) was 22.9 µM (inactive), the GI50 (T47D) was 16.7 µM (inactive) and the GI50 (NCI-H460) was 16 µM (inactive). The GI50 (UACC-257) was 15.1 µM (inactive), the GI50 (SK-OV-3) was 18.2 µM (inactive) and the GI50 (DU-145) was 33.9 µM (inactive). For the same molecule, the GI50 (NCI-H522) was 16.3 µM (inactive), the GI50 (HCC 2998) was 12.5 µM (inactive) and the GI50 (M14) was 16.5 µM (inactive). For the same molecule, the GI50 (A549) was 32.6 µM (inactive), the GI50 (K562) was 20.3 µM (inactive) and the GI50 (NCI-H226) was 21.1 µM (inactive). For the same molecule, the GI50 (NCI/ADR-RES) was 25.1 µM (inactive), the GI50 (MCF7) was 14.8 µM (inactive) and the GI50 (SNB-19) was 29.9 µM (inactive). For the same molecule, the GI50 (SK-MEL-5) was 15.3 µM (inactive), the GI50 (SK-MEL-28) was 17.7 µM (inactive) and the GI50 (HOP-62) was 16.5 µM (inactive). For the same molecule, the GI50 (SF-295) was 15.9 µM (inactive), the GI50 (U-251) was 17.3 µM (inactive) and the GI50 (NCI-H23) was 33.3 µM (inactive). For the same molecule, the GI50 (MDA-MB-435) was 18.2 µM (inactive), the GI50 (SK-MEL-2) was 17.2 µM (inactive) and the GI50 (MDA-N) was 16.1 µM (inactive). For the same molecule, the GI50 (786-0) was 16.4 µM (inactive), the GI50 (BT-549) was 33.1 µM (inactive) and the GI50 (SNB-75) was 15.7 µM (inactive). The GI50 (Hs-578T) was 32.7 µM (inactive), the GI50 (SW-620) was 26.2 µM (inactive) and the GI50 (MOLT-4) was 23.2 µM (inactive). For the same molecule, the GI50 (SF-539) was 28.2 µM (inactive), the GI50 (IGROV-1) was 17.2 µM (inactive) and the GI50 (RPMI-8226) was 20.5 µM (inactive). For the same molecule, the GI50 (HCT-116) was 14.8 µM (inactive), the GI50 (EKVX) was 37.9 µM (inactive) and the GI50 (ACHN) was 23.9 µM (inactive). The GI50 (A498) was 17.2 µM (inactive), the GI50 (Malme-3M) was 16.3 µM (inactive) and the GI50 (OVCAR-8) was 31.8 µM (inactive). For the same molecule, the GI50 (KM12) was 19.3 µM (inactive), the GI50 (UO-31) was 11.2 µM (inactive) and the GI50 (UACC-62) was 16.4 µM (inactive). The GI50 (SN12C) was 22.9 µM (inactive), the GI50 (HOP-92) was 12.3 µM (inactive) and the GI50 (OVCAR-4) was 48.9 µM (inactive).
